Experimental data published in patent US8772499B2, “TRPV3 modulators” (AbbVie Inc., priority 2011, dated 2014).
Read-outs that look alike come from different tables or passages of the source.

Tests used:
human TRPV3 = molecular target: T1, human TRPV3 (Homo sapiens, UniProt Q8NET8); test: In vitro antagonism of recombinant human TRPV3 activation (FLIPR Tetra calcium assay); type: cell-based; details: HEK293 cells stably expressing human TRPV3, agonist 2-APB at 80 μM
T1 construct: expressed in transfected cells
T1 sequence (Q8NET8 1-790): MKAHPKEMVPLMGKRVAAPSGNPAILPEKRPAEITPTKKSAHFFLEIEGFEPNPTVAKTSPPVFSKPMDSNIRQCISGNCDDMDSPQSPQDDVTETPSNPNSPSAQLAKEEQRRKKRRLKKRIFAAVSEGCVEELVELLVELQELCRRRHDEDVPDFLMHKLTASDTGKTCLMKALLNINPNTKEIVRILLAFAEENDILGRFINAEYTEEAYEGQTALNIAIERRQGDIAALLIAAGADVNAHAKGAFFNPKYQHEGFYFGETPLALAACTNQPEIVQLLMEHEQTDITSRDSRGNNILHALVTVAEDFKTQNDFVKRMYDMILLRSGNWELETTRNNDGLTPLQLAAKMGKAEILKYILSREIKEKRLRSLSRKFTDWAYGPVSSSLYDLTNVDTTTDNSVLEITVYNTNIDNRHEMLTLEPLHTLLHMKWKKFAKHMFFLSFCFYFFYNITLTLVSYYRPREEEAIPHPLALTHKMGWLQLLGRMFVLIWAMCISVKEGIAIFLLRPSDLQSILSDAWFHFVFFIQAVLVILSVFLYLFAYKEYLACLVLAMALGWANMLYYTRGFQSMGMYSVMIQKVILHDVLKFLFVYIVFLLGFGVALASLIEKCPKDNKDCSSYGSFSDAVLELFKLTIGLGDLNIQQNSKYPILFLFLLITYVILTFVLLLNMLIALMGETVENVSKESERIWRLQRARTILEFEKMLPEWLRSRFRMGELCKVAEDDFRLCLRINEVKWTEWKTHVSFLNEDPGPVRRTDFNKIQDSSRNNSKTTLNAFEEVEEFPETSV
Description: Test compounds were evaluated for ability to antagonize the activation of recombinant human TRPV3 using FLIPR® Tetra cellular screening. Specifically, on the day prior to the experiment recombinant HEK293 cells that stably express human TRPV3 were removed from tissue culture flasks and plated in growth medium at 20,000 cells/well into Poly-d-lysine coated black/clear 384-well Plate (Corning, 3845) using a Multidrop® dispenser (ThermoScientific, Waltham, Mass.). Prior to the start of the assay, the medium was removed by aspiration, and cells were loaded with 30 μL no-wash FLIPR® Calcium-4 dye (λEX=470-495 nm, λEM=515-575 nm; Molecular Devices, Sunnyvale, Calif.). The cells were then incubated for 90-120 minutes in the dark prior to addition of the test compound.
A double-addition protocol was used. The test compound (i.e., the TRPV3 antagonist) was added at the 10 second time point, followed by the addition of a TRPV3 agonist three minutes later. Each test compound evaluated was first dissolved in DMSO to prepare a 10 mM stock solution. A solution (5×) of the test compound was then prepared in DPBS (Dulbecco's Phosphate Buffered Saline) and 10 μl, of that solution was added to the cells at a delivery rate of 40 μL/sec. The TRPV3 agonist used to activate human TRPV3 expressed by the […] was 2-aminoethoxy-diphenyl borate (2-APB; Tocris Cookson, Ellisville, Mo.) at 80 μM. Final assay volume was 50 μl, Total length of an experimental run was 10 minutes.
Changes in fluorescence were measured over time using the FLIPR® instrument. The intensity of the fluorescence was captured and digitally transferred to an interfaced computer. The maximum response minus minimum response was calculated and expressed as the percentage of the maximum 2-APB response in the absence of antagonist. The concentration of 2-APB corresponds to its EC80.
Table 1 reports the IC50 values measured for the test compounds as human TRPV3 antagonists. […] Actual measured values are shown parenthetically after the reported range. In most cases, the values reported are average values from at least two runs (i.e., n≧2).

[1] = In vitro rat microsomal stability assay; type: in vitro ADME, rat (Sprague-Dawley); details: Sprague-Dawley, rat, microsomes, 0.5 h, 0.5 μM, pH 7.4
Description: Test compounds were evaluated for metabolic stability in an in vitro rat microsomal stability assay using rat liver microsomes (Sprague-Dawley, from BD Biosciences) and/or an in vitro human microsomal stability assay using human liver microsomes (Xenotech). […] Incubations were carried out at 37° C. with a final incubation volume of 135 μL. […] A 1.5 μL aliquot of reduced nicotine adenine disphosphonucleotide (NADPH) (Chem-Impex Int'L Inc., Lot 12532024) was also added to the time-zero plates.

[2] = actual measured value shown parenthetically, in most cases average of at least two runs, read-out: IC50
[3] = reported range, read-out: IC50 (range class)

Compound | IC50 (human TRPV3; [2]) | RAT MICROSOMAL STABILITY (% REMAINING AFTER 30 MINUTES) [1] | IC50 (human TRPV3; [3])
CC(c1cccc(C(F)(F)F)c1)C1(C(O)c2ccccn2)CCC1 (stereo not shown) [Example 54, pyridin-2-yl(1-{1-[3-(trifluoromethyl)phenyl]ethyl}cyclobutyl)methanol] | 22 µM | 0.21% | 
CC1(O)CC(c2ccc(OC(F)(F)F)cc2)(C(O)c2ncccn2)C1 [Example 311, (trans)-3-((R)-hydroxy(pyrimidin-2-yl)methyl)-1-methyl-3-(4-(trifluoromethoxy)phenyl)cyclobutanol] | > 20 µM | >85% | > 20 µM
COc1ccc(C2(C(O)c3ccccn3)CCOC2)cc1 (stereo not shown) [Example 83, [3-(4-methoxyphenyl)tetrahydrofuran-3-yl](pyridin-2-yl)methanol] | > 20 µM |  | > 20 µM
CC(c1ccccc1)C1(C(O)c2ccccn2)CCC1 (stereo not shown) [Example 51, [1-(1-phenylethyl)cyclobutyl](pyridin-2-yl)methanol] | 8.25 µM |  | 
OC(c1ncccn1)C1(c2ccc(F)cc2)CCC1 (stereo not shown) [Example 34, [1-(4-fluorophenyl)cyclobutyl](pyrimidin-2-yl)methanol] | > 20 µM |  | > 20 µM
CC(c1ccccc1F)C1(C(O)c2ccccn2)CCC1 (stereo not shown) [Example 48, {1-[1-(2-fluorophenyl)ethyl]cyclobutyl}(pyridin-2-yl)methanol] | 5.68 µM |  | 
CC(c1cccc(Cl)c1)C1(C(O)c2ccccn2)CCC1 (stereo not shown) [Example 44, {1-[1-(3-chlorophenyl)ethyl]cyclobutyl}(pyridin-2-yl)methanol] | 8 µM |  | 
OC(c1ccccn1)C1(c2ccc(F)c(F)c2)CCOCC1 (stereo not shown) [Example 63, [4-(3,4-difluorophenyl)tetrahydro-2H-pyran-4-yl](pyridin-2-yl)methanol] | 7.17 µM |  | 
OC(c1ccccn1)C1(c2ccccc2)CCOCC1 (stereo not shown) [Example 60, (4-phenyltetrahydro-2H-pyran-4-yl)(pyridin-2-yl)methanol] | 7.55 µM |  | 
OC(c1ccccn1)C1(c2cc(F)cc(C(F)(F)F)c2)CCC1 (stereo not shown) [Example 14, {1-[3-fluoro-5-(trifluoromethyl)phenyl]cyclobutyl}(pyridin-2-yl)methanol] | > 20 µM |  | > 20 µM
OC(c1ncccn1)C1(c2ccccc2F)CCC1 (stereo not shown) [Example 32, [1-(2-fluorophenyl)cyclobutyl](pyrimidin-2-yl)methanol] | > 20 µM |  | > 20 µM
OC(c1ccccn1)C1(c2cccc(F)c2)CCOCC1 (stereo not shown) [Example 61, [4-(3-fluorophenyl)tetrahydro-2H-pyran-4-yl](pyridin-2-yl)methanol] | 7.54 µM |  | 
OC(c1ccccn1)C1(c2ccc(-c3ccccc3)cc2)CCC1 (stereo not shown) [Example 22, [1-(1,1′-biphenyl-4-yl)cyclobutyl](pyridin-2-yl)methanol] | > 20 µM |  | > 20 µM
NC1CCCCC1C(O)C1(c2ccc(OC(F)(F)F)cc2)CCC1 (stereo not shown) [Example 209, (2-aminocyclohexyl) {1-[4-(trifluoromethoxy)phenyl]cyclobutyl}methanol] | 4.6 µM |  | 
CS(=O)(=O)c1ccc(C2(C(O)c3ccccn3)CCC2)cc1 (stereo not shown) [Example 16, {1-[4-(methylsulfonyl)phenyl]cyclobutyl}(pyridin-2-yl)methanol] | > 20 µM |  | > 20 µM
OC(c1ccccn1)C1(c2ccc(F)cc2)CCOCC1 (stereo not shown) [Example 62, [4-(4-fluorophenyl)tetrahydro-2H-pyran-4-yl](pyridin-2-yl)methanol] | 11.8 µM |  | 
OC(C1CCCc2cccnc21)C1(c2ccccc2C(F)(F)F)CCC1 (stereo not drawn) [Example 196, (syn)-5,6,7,8-tetrahydroquinolin-8-yl{1-[2-(trifluoromethyl)phenyl]-cyclobutyl}methanol] | > 20 µM |  | > 20 µM
OC(CC1(c2ccc(F)cc2)CCC1)c1ccccn1 (stereo not shown) [Example 70, 2-[1-(4-fluorophenyl)cyclobutyl]-1-(pyridin-2-yl)ethanol] | 12 µM |  | 

Now those with a lower IC50 (human TRPV3; [2]), led by results:

IC50 (human TRPV3; [2]) | RAT MICROSOMAL STABILITY (% REMAINING AFTER 30 MINUTES) [1] | IC50 (human TRPV3; [3]) | Compound
0.83 µM | 7.7% |  | OC(c1ncccn1)C1(c2cccc(OC(F)(F)F)c2)CCC1 (stereo not shown) [Example 37, pyrimidin-2-yl{1-[3-(trifluoromethoxy)phenyl]cyclobutyl}methanol]
2.8 µM | >85% |  | CC1(O)CC(c2cccc(OC(F)(F)F)c2)(C(O)c2ccccn2)C1 [Example 263, trans-3-[(S)-hydroxy(pyridin-2-yl)methyl]-1-methyl-3-[3-(trifluoromethoxy)phenyl]cyclobutanol]
0.06 µM | 9.5% |  | OC(c1ncccn1)C1(c2ccc(Cl)c(Cl)c2)CCC1 (stereo not shown) [Example 38, [1-(3,4-dichlorophenyl)cyclobutyl] (pyrimidin-2-yl)methanol]
2.26 µM |  |  | OC(c1ccccn1)C1(c2ccc(C(F)(F)F)cc2)CCOCC1 (stereo not shown) [Example 65, pyridin-2-yl{4-[4-(trifluoromethyl)phenyl]tetrahydro-2H-pyran-4-yl}-methanol]
1.22 µM |  |  | NC1CCCC1C(O)C1(c2ccccc2OC(F)(F)F)CCC1 (stereo not shown) [Example 214, (2-aminocyclopentyl) {1-[2-(trifluoromethoxy)phenyl]cyclobutyl}methanol]
1.94 µM |  |  | OC(CC1(c2ccc(Cl)c(Cl)c2)CCC1)c1ccccn1 (stereo not shown) [Example 73, 2-[1-(3,4-dichlorophenyl)cyclobutyl]-1-(pyridin-2-yl)ethanol]
2.22 µM |  |  | CC(c1cccc(F)c1)C1(C(O)c2ccccn2)CCC1 (stereo not shown) [Example 47, {1-[1-(3-fluorophenyl)ethyl]cyclobutyl}(pyridin-2-yl)methanol]
0.77 µM |  |  | NC1CCCC1C(O)C1(c2ccc(Cl)c(Cl)c2)CCC1 (stereo not shown) [Example 215, (2-aminocyclopentyl)[1-(3,4-dichlorophenyl)cyclobutyl]methanol]
0.74 µM | 0.27% |  | CCN(CC)c1ccc(C2(C(O)c3ccccn3)CCC2)cc1 (stereo not shown) [Example 18, {1-[4-(diethylamino)phenyl]cyclobutyl}(pyridin-2-yl)methanol]
1.78 µM |  |  | OC(c1ccccn1)C1(c2cccc(OC(F)(F)F)c2)CCOC1 (stereo not shown) [Example 80, pyridin-2-yl{3-[3-(trifluoromethoxy)phenyl]tetrahydrofuran-3-yl}methanol]
3.99 µM |  |  | NC1CCCCC1C(O)C1(c2ccc(C(F)(F)F)cc2)CCC1 (stereo not shown) [Example 207, (2-aminocyclohexyl) {1-[4-(trifluoromethyl)phenyl]cyclobutyl}methanol]
1.73 µM |  |  | N[C@H]1CCC[C@H]1[C@@H](O)C1(c2ccc(Cl)c(Cl)c2)CCC1 [Example 218, (R)-[(1R,2S)-2-aminocyclopentyl][1-(3,4-dichlorophenyl)cyclobutyl]-methanol]
2.06 µM | 36% |  | NC1CCCC1C(O)C1(c2cccc(OC(F)(F)F)c2)CCC1 (stereo not shown) [Example 208, (2-aminocyclopentyl) {1-[3-(trifluoromethoxy)phenyl]cyclobutyl}methanol]
